{"source": "patent US20210395262A1", "about": "“INHIBITORS OF HUMAN IMMUNODEFICIENCY VIRUS REPLICATION” (ViiV HEALTHCARE UK (NO.5) LIMITED, priority 2018, published 2021)", "key": {"[1]": {"assay": "Compound cytotoxicity, XTT-based colorimetric assay", "type": "cell-based", "conditions": "human; uninfected MT2 cells, day 4, XTT; read-out: CC50", "summary_of_the_method": "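Run under the antiviral-assay protocol but without virus. Viability was read on day 4 and CC50 values were derived from the readout.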"}, "recombinant NL4-3 virus": {"test_system": "recombinant NL4-3 virus", "assay": "HIV cell culture assay (antiviral activity, luciferase readout in MT-2 cells)", "type": "cell-based", "conditions": "Human immunodeficiency virus 1, NL43, MT2", "summary_of_the_method": "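MT-2 cells infected for 4-5 days with NL4-3 reference virus carrying Renilla luciferase in place of part of nef, in presence of serial compound dilutions. Luciferase activity read with live-cell substrate. EC50 derived from median effect equation, slope parameter m.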"}}}
{"smiles": "C[C@@H]1CN(c2ccc3c(=O)n(-c4ccc(Cl)c5c(NS(C)(=O)=O)nn(CC(F)F)c45)c([C@H](Cc4cc(F)cc(F)c4)NC(=O)Cn4nc(C(F)(F)F)c5ccccc54)nc3c2)C[C@H](C)O1", "note": "(atropisomer, axis not shown; (P)) [Example 43, N—((S)-1-((3P)-3-(4-chloro-1-(2,2-difluoroethyl)-3-(methylsulfonamido)-1H-indazol-7-yl)-7-((2S,6R)-2,6-dimethylmorpholino)-4-oxo-3,4-dihydroquinazolin-2-yl)-2-(3,5-difluorophenyl)ethyl)-2-(3-(trifluoromethyl)-1H-indazol-1-yl)acetamide]", "values": [{"measurement": "CC50 at 4 days", "setting": "[1]", "result": "> 500", "unit": "nM"}, {"measurement": "EC50", "setting": "recombinant NL4-3 virus", "result": 1.2, "unit": "nM"}]}
{"smiles": "C[C@@H]1CN(c2ccc3c(=O)n(-c4ccc(Cl)c5c(NS(C)(=O)=O)nn(CC(F)F)c45)c([C@H](Cc4cc(F)cc(F)c4)NC(=O)Cn4nc(C5CC5)c5ccccc54)nc3c2)C[C@H](C)O1", "note": "(atropisomer, axis not shown; (P)) [Example 44, N—((S)-1-((3P)-3-(4-chloro-1-(2,2-difluoroethyl)-3-(methylsulfonamido)-1H-indazol-7-yl)-7-((2S,6R)-2,6-dimethylmorpholino)-4-oxo-3,4-dihydroquinazolin-2-yl)-2-(3,5-difluorophenyl)ethyl)-2-(3-cyclopropyl-1H-indazol-1-yl)acetamide]", "values": [{"measurement": "CC50 at 4 days", "setting": "[1]", "result": "> 500", "unit": "nM"}, {"measurement": "EC50", "setting": "recombinant NL4-3 virus", "result": 0.59, "unit": "nM"}]}
{"smiles": "C[C@@H]1CN(c2ccc3c(=O)n(-c4ccc(Cl)c5c(NS(C)(=O)=O)nn(CC(F)F)c45)c([C@H](Cc4cc(F)cc(F)c4)NC(=O)Cn4nc(C(F)(F)F)c5c4C(F)(F)[C@@H]4C[C@H]54)nc3c2)C[C@H](C)O1", "note": "(atropisomer, axis not shown; (P)) [Example 45, N—((S)-1-((3P)-3-(4-chloro-1-(2,2-difluoroethyl)-3-(methylsulfonamido)-1H-indazol-7-yl)-7-((2S,6R)-2,6-dimethylmorpholino)-4-oxo-3,4-dihydroquinazolin-2-yl)-2-(3,5-difluorophenyl)ethyl)-2-((3bS,4aR)-5,5-difluoro-3-(trifluoromethyl)-3b,4,4a,5-tetrahydro-1H-cyclopropa[3,4]cyclopenta[1,2-c]pyrazol-1-yl)acetamide]", "values": [{"measurement": "CC50 at 4 days", "setting": "[1]", "result": "> 500", "unit": "nM"}, {"measurement": "EC50", "setting": "recombinant NL4-3 virus", "result": 0.1, "unit": "nM"}]}
{"smiles": "C[C@@H]1CN(c2ccc3c(=O)n(-c4ccc(Cl)c5c(NS(C)(=O)=O)nn(CC(F)F)c45)c([C@H](Cc4cc(F)cc(F)c4)NC(=O)Cn4nc(C5CC5)cc4C(F)F)nc3c2)C[C@H](C)O1", "note": "(atropisomer, axis not shown; (P)) [Example 47, N—((S)-1-((3P)-3-(4-chloro-1-(2,2-difluoroethyl)-3-(methylsulfonamido)-1H-indazol-7-yl)-7-((2S,6R)-2,6-dimethylmorpholino)-4-oxo-3,4-dihydroquinazolin-2-yl)-2-(3,5-difluorophenyl)ethyl)-2-(3-cyclopropyl-5-(difluoromethyl)-1H-pyrazol-1-yl)acetamide]", "values": [{"measurement": "CC50 at 4 days", "setting": "[1]", "result": "> 500", "unit": "nM"}, {"measurement": "EC50", "setting": "recombinant NL4-3 virus", "result": 0.96, "unit": "nM"}]}
{"smiles": "C[C@@H]1CN(c2ccc3c(=O)n(-c4ccc(Cl)c5c(NS(C)(=O)=O)nn(CC(F)F)c45)c([C@H](Cc4cc(F)cc(F)c4)NC(=O)Cn4ccc(C5CC5)n4)nc3c2)C[C@H](C)O1", "note": "(atropisomer, axis not shown; (P)) [Example 48, N—((S)-1-((3P)-3-(4-chloro-1-(2,2-difluoroethyl)-3-(methylsulfonamido)-1H-indazol-7-yl)-7-((2S,6R)-2,6-dimethylmorpholino)-4-oxo-3,4-dihydroquinazolin-2-yl)-2-(3,5-difluorophenyl)ethyl)-2-(3-cyclopropyl-1H-pyrazol-1-yl)acetamide]", "values": [{"measurement": "CC50 at 4 days", "setting": "[1]", "result": "> 500", "unit": "nM"}, {"measurement": "EC50", "setting": "recombinant NL4-3 virus", "result": 0.44, "unit": "nM"}]}
{"smiles": "C[C@@H]1CN(c2ccc3c(=O)n(-c4ccc(Cl)c5c(NS(C)(=O)=O)nn(CC(F)F)c45)c([C@H](Cc4cc(F)cc(F)c4)NC(=O)Cn4ccc(C(C)(C)C)n4)nc3c2)C[C@H](C)O1", "note": "(atropisomer, axis not shown; (P)) [Example 49, 2-(3-(tert-butyl)-1H-pyrazol-1-yl)-N—((S)-1-((3P)-3-(4-chloro-1-(2,2-difluoroethyl)-3-(methylsulfonamido)-1H-indazol-7-yl)-7-((2S,6R)-2,6-dimethylmorpholino)-4-oxo-3,4-dihydroquinazolin-2-yl)-2-(3,5-difluorophenyl)ethyl)acetamide]", "values": [{"measurement": "CC50 at 4 days", "setting": "[1]", "result": "> 500", "unit": "nM"}, {"measurement": "EC50", "setting": "recombinant NL4-3 virus", "result": 2.7, "unit": "nM"}]}
{"smiles": "C[C@@H]1CN(c2ccc3c(=O)n(-c4ccc(Cl)c5c(NS(C)(=O)=O)nn(CC(F)F)c45)c([C@H](Cc4cc(F)cc(F)c4)NC(=O)Cn4ccc(C5CCC5)n4)nc3c2)C[C@H](C)O1", "note": "(atropisomer, axis not shown; (P)) [Example 50, N—((S)-1-((3P)-3-(4-chloro-1-(2,2-difluoroethyl)-3-(methylsulfonamido)-1H-indazol-7-yl)-7-((2S,6R)-2,6-dimethylmorpholino)-4-oxo-3,4-dihydroquinazolin-2-yl)-2-(3,5-difluorophenyl)ethyl)-2-(3-cyclobutyl-1H-pyrazol-1-yl)acetamide]", "values": [{"measurement": "CC50 at 4 days", "setting": "[1]", "result": "> 500", "unit": "nM"}, {"measurement": "EC50", "setting": "recombinant NL4-3 virus", "result": 0.91, "unit": "nM"}]}
{"smiles": "C[C@@H]1CN(c2ccc3c(=O)n(-c4ccc(Cl)c5c(NS(C)(=O)=O)nn(C)c45)c([C@H](Cc4cc(F)cc(F)c4)NC(=O)Cc4cn(C5CC5)c5ccccc45)nc3c2)C[C@H](C)O1", "note": "(atropisomer, axis not shown; (P)) [Example 53, N—((S)-1-((3P)-3-(4-chloro-1-methyl-3-(methylsulfonamido)-1H-indazol-7-yl)-7-((2S,6R)-2,6-dimethylmorpholino)-4-oxo-3,4-dihydroquinazolin-2-yl)-2-(3,5-difluorophenyl)ethyl)-2-(1-cyclopropyl-1H-indol-3-yl)acetamide]", "values": [{"measurement": "CC50 at 4 days", "setting": "[1]", "result": "> 500", "unit": "nM"}, {"measurement": "EC50", "setting": "recombinant NL4-3 virus", "result": 0.81, "unit": "nM"}]}
{"smiles": "C[C@@H]1CN(c2ccc3c(=O)n(-c4ccc(Cl)c5c(NS(C)(=O)=O)nn(C)c45)c([C@H](Cc4cc(F)cc(F)c4)NC(=O)Cn4nc(C(F)(F)F)c5c4C(F)(F)[C@@H]4C[C@H]54)nc3c2)C[C@H](C)O1", "note": "(atropisomer, axis not shown; (P)) [Example 54, N—((S)-1-((3P)-3-(4-chloro-1-methyl-3-(methylsulfonamido)-1H-indazol-7-yl)-7-((2S,6R)-2,6-dimethylmorpholino)-4-oxo-3,4-dihydroquinazolin-2-yl)-2-(3,5-difluorophenyl)ethyl)-2-((3bS,4aR)-5,5-difluoro-3-(trifluoromethyl)-3b,4,4a,5-tetrahydro-1H-cyclopropa[3,4]cyclopenta[1,2-c]pyrazol-1-yl)acetamide]", "values": [{"measurement": "CC50 at 4 days", "setting": "[1]", "result": "> 500", "unit": "nM"}, {"measurement": "EC50", "setting": "recombinant NL4-3 virus", "result": 0.073, "unit": "nM"}]}
{"smiles": "Cn1nc(NS(C)(=O)=O)c2c(Cl)ccc(-n3c([C@H](Cc4cc(F)cc(F)c4)NC(=O)Cn4nc(C(F)F)c5c4C(F)(F)[C@@H]4C[C@H]54)nc4cc(N5CC(C)(C)OC(C)(C)C5)ccc4c3=O)c21", "note": "(atropisomer, axis not shown; (P)) [Example 57, N—((S)-1-((3P)-3-(4-chloro-1-methyl-3-(methylsulfonamido)-1H-indazol-7-yl)-4-oxo-7-(2,2,6,6-tetramethylmorpholino)-3,4-dihydroquinazolin-2-yl)-2-(3,5-difluorophenyl)ethyl)-2-((3bS,4aR)-3-(difluoromethyl)-5,5-difluoro-3b,4,4a,5-tetrahydro-1H-cyclopropa[3,4]cyclopenta[1,2-c]pyrazol-1-yl)acetamide]", "values": [{"measurement": "CC50 at 4 days", "setting": "[1]", "result": "> 500", "unit": "nM"}, {"measurement": "EC50", "setting": "recombinant NL4-3 virus", "result": 0.077, "unit": "nM"}]}
{"smiles": "C[C@@H]1CN(c2ccc3c(=O)n(-c4ccc(Cl)c5c(NS(C)(=O)=O)nn(CC(F)(F)F)c45)c([C@H](Cc4cc(F)cc(F)c4)NC(=O)Cn4nc(C(F)F)c5c4C(F)(F)[C@@H]4C[C@H]54)nc3c2)C[C@H](C)O1", "note": "(atropisomer, axis not shown; (P)) [Example 58, N—((S)-1-((3P)-3-(4-chloro-3-(methylsulfonamido)-1-(2,2,2-trifluoroethyl)-1H-indazol-7-yl)-7-((2S,6R)-2,6-dimethylmorpholino)-4-oxo-3,4-dihydroquinazolin-2-yl)-2-(3,5-difluorophenyl)ethyl)-2-((3bS,4aR)-3-(difluoromethyl)-5,5-difluoro-3b,4,4a,5-tetrahydro-1H-cyclopropa[3,4]cyclopenta[1,2-c]pyrazol-1-yl)acetamide]", "values": [{"measurement": "CC50 at 4 days", "setting": "[1]", "result": "> 500", "unit": "nM"}, {"measurement": "EC50", "setting": "recombinant NL4-3 virus", "result": 0.053, "unit": "nM"}]}
{"smiles": "C[C@@H]1CN(c2ccc3c(=O)n(-c4ccc(Cl)c5c(NS(C)(=O)=O)nn(CC(F)(F)F)c45)c([C@H](Cc4cc(F)cc(F)c4)NC(=O)Cn4nc(C(F)F)cc4C4CC4)nc3c2)C[C@H](C)O1", "note": "(atropisomer, axis not shown; (P)) [Example 59, N—((S)-1-((3P)-3-(4-chloro-3-(methylsulfonamido)-1-(2,2,2-trifluoroethyl)-1H-indazol-7-yl)-7-((2S,6R)-2,6-dimethylmorpholino)-4-oxo-3,4-dihydroquinazolin-2-yl)-2-(3,5-difluorophenyl)ethyl)-2-(5-cyclopropyl-3-(difluoromethyl)-1H-pyrazol-1-yl)acetamide]", "values": [{"measurement": "CC50 at 4 days", "setting": "[1]", "result": "> 500", "unit": "nM"}, {"measurement": "EC50", "setting": "recombinant NL4-3 virus", "result": 0.42, "unit": "nM"}]}
{"smiles": "C[C@@H]1CN(c2ccc3c(=O)n(-c4ccc(Cl)c5c(NS(C)(=O)=O)nn(CC(F)(F)F)c45)c([C@H](Cc4cc(F)cc(F)c4)NC(=O)Cn4nc(C5CC5)cc4C(F)F)nc3c2)C[C@H](C)O1", "note": "(atropisomer, axis not shown; (P)) [Example 60, N—((S)-1-((3P)-3-(4-chloro-3-(methylsulfonamido)-1-(2,2,2-trifluoroethyl)-1H-indazol-7-yl)-7-((2S,6R)-2,6-dimethylmorpholino)-4-oxo-3,4-dihydroquinazolin-2-yl)-2-(3,5-difluorophenyl)ethyl)-2-(3-cyclopropyl-5-(difluoromethyl)-1H-pyrazol-1-yl)acetamide]", "values": [{"measurement": "CC50 at 4 days", "setting": "[1]", "result": "> 500", "unit": "nM"}, {"measurement": "EC50", "setting": "recombinant NL4-3 virus", "result": 0.36, "unit": "nM"}]}
